# From US20150011751A1, “NOVEL TRIAZINE DERIVATIVE” (CARNA BIOSCIENCES, INC., priority 2012, published 2015)
# Molecular target: Dephosphorylated BTK (Homo sapiens, UniProt Q06187)
# Experiment: Test of activity inhibition against dephosphorylated BTK (mobility shift assay)
# Chain of Dephosphorylated BTK (Q06187 whole entry): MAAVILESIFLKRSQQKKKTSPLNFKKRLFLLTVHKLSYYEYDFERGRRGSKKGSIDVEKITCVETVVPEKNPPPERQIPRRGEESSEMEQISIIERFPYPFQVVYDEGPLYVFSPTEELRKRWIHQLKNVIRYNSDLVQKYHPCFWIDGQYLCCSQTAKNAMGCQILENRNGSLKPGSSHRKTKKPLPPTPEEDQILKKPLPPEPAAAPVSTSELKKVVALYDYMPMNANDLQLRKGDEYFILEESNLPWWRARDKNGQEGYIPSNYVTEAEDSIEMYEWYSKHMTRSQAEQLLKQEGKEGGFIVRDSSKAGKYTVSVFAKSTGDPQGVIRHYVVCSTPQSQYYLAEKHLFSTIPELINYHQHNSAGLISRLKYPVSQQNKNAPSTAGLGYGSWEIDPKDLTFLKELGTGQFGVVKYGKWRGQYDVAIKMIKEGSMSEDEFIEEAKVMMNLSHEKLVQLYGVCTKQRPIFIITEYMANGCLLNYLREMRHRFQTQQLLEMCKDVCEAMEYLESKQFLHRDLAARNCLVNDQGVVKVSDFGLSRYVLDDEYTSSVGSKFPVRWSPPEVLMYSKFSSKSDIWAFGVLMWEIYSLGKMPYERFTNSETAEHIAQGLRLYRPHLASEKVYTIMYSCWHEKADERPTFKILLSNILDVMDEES
row,SMILES,IC50 [nM]
1,"CN1CCN(c2ccc(Nc3nc(N)nc(-c4cccc(NC(=O)c5ccc(C(C)(C)C)cc5)c4CO)n3)cc2)CC1 [Example 146, N-[3-(4-Amino-6-{[4-(4-methylpiperazin-1-yl)phenyl]amino}-1,3,5-triazin-2-yl)-2-(hy-droxymethyl)phenyl]-4-(tert-butyl)benzamide]",0.4
2,"Nc1nc(Nc2ccc(N3CCNCC3)cc2)nc(-c2cccc(NC(=O)c3cc4c(s3)CCCC4)c2CO)n1 [Example 147, N-[3-(4-Amino-6-{[4-(piperazin-1-yl)phenyl]amino}-1,3,5-triazin-2-yl)-2-(hydroxymeth-yl)phenyl]-4,5,6,7-tetra-hydrobenzo[b]thio-phene-2-carboxamide]",0.3
3,"CC(C)(C)c1ccc(C(=O)Nc2cccc(-c3nc(N)nc(Nc4ccc(C(N)=O)cc4)n3)c2CO)cc1 [Example 149, N-(3-{4-Amino-6-[(4-carbamoylphenyl)amino]-1,3,5-triazin-2-yl}-2-(hydroxymethyl)phe-nyl)-4-(tert-butyl) benzamide]",0.5
4,"CC(C)(C)c1ccc(C(=O)Nc2cccc(-c3nc(N)nc(Nc4ccc(OCCn5cccc5)cc4)n3)c2CO)cc1 [Example 150, N-{3-[4-({4-[2-(1H-Pyr-rol-1-yl)ethoxy]phe-nyl}amino)-6-amino-1,3,5-triazin-2-yl]-2-(hy-droxymethyl)phenyl}-4-(tert-butyl)benzamide]",0.8
5,"CC(C)(C)c1ccc(C(=O)Nc2cccc(-c3nc(N)nc(Nc4ccc(OCCOCCO)cc4)n3)c2CO)cc1 [Example 151, N-{3-[4-Amino-6-({4-[2-(2-hydroxyethoxy)eth-oxy]phenyl}amino)-1,3,5-triazin-2-yl]-2-(hy-droxymethyl)phenyl}-4-(tert-butyl)benzamide]",1.3
6,"CC(C)(C)c1ccc(C(=O)Nc2cccc(-c3nc(N)nc(Nc4cccc(C(=O)O)c4)n3)c2CO)cc1 [Example 153, 3-[(4-Amino-6-{3-[4-(tert-butyl)benzamido]-2-(hydroxymethyl)phe-nyl}-1,3,5-triazin-2-yl)amino]benzoic acid]",4.9
7,"CC(C)(C)c1ccc(C(=O)Nc2cccc(-c3nc(N)nc(Nc4ccc5c(c4)OCC(=O)N5)n3)c2CO)cc1 [Example 154, N-(3-{4-Amino-6-[(3-oxo-3,4-dihydro-2H-ben-zo[b][1,4]oxazin-7-yl)amino]-1,3,5-triazin-2-yl}-2-(hydroxymeth-yl)benzyl)-4-(tert-bu-tyl)benzamide]",0.9
8,"CC(C)(C)c1ccc(C(=O)Nc2cccc(-c3nc(N)nc(Nc4ccc5c(c4)ncn5CCCO)n3)c2CO)cc1 [Example 155, N-[3-(4-Amino-6-{[1-(3-hydroxypropyl)-1H-benzo[d]imidazol-5-yl]amino}-1,3,5-triazin-2-yl)-2-(hydroxymeth-yl)phenyl]-4-(tert-butyl)benzamide]",0.8
9,"CC(C)(C)c1ccc(C(=O)Nc2cccc(-c3nc(N)nc(Nc4ccc(N5CCOC5=O)cc4)n3)c2CO)cc1 [Example 156, N-[3-(4-Amino-6-{[4-(2-oxooxazolidin-3-yl)phenyl]amino}-1,3,5-tri-azin-2-yl)-2-(hydroxy-methyl)phenyl]-4-(tert-butyl)benzamide]",0.5
10,"CCN(CC)CCOc1ccc(Nc2nc(N)nc(-c3cccc(NC(=O)c4ccc(C(C)(C)C)cc4)c3CO)n2)cc1 [Example 159, N-{3-[4-Amino-6-({4-[2-(diethylamino)ethoxy]phenyl}amino)-1,3,5-triazin-2-yl]-2-(hy-droxymethyl)phenyl}-4-(tert-butyl)benzamide]",5.9
11,"CC(C)(C)c1ccc(C(=O)Nc2cccc(-c3nc(N)nc(Nc4cccc(Cn5cccn5)c4)n3)c2CO)cc1 [Example 161, N-{3-[4-({3-[(1H-Pyra-zol-1-yl)methyl]phenyl}amino)-6-amino-1,3,5-triazin-2-yl]-2-(hy-droxymethyl)phenyl}-4-(tert-butyl)benzamide]",1.1
12,"CC(C)(C)c1ccc(C(=O)Nc2cccc(-c3nc(N)nc(Nc4cccc(CN5CCOCC5)c4)n3)c2CO)cc1 [Example 163, N-[3-(4-Amino-6-{[3-(morpholinomethyl)phe-nyl]amino}-1,3,5-triazin-2-yl)-2-(hydroxymeth-yl)phenyl]-4-(tert-butyl)benzamide]",1
13,"CC(C)(C)c1ccc(C(=O)Nc2cccc(-c3nc(N)nc(Nc4ccc(Cn5cncn5)cc4)n3)c2CO)cc1 [Example 164, N-{3-[4-({4-[(1H-1,2,4-Triazol-1-yl)methyl]phenyl}amino)-6-amino-1,3,5-triazin-2-yl]-2-(hydroxymethyl)phe-nyl}-4-(tert-butyl) benzamide]",0.5
14,"Nc1nc(Nc2ccc(N3CCOCC3)cc2)nc(-c2cccc(NC(=O)c3ccc(C(F)(F)F)cc3)c2CO)n1 [Example 168, N-(3-{4-Amino-6-[(4-morpholinophenyl)amino]-1,3,5-triazin-2-yl}-2-(hydroxymethyl)phe-nyl)-4-(trifluorometh-yl)benzamide]",17.6
15,"Nc1nc(Nc2ccc(N3CCOCC3)cc2)nc(-c2cccc(NC(=O)c3ccc4c(c3)CCC4)c2CO)n1 [Example 171, N-(3-{4-Amino-6-[(4-morpholinophenyl)amino]-1,3,5-triazin-2-yl}-2-(hydroxymethyl)phe-nyl)-2,3-dihydro-1H-indene-5-carboxamide]",26
16,"Cc1nccn1-c1ccc(Nc2nc(N)nc(-c3cccc(NC(=O)c4ccc(C(C)(C)C)cc4)c3CO)n2)cc1 [Example 172, N-[3-(4-Amino-6-{[4-(2-methyl-1H-imidazol-1-yl)phenyl]amino}-1,3,5-triazin-2-yl)-2-(hy-droxymethyl)phenyl]-4-(tert-butyl)benzamide]",0.6
17,"CC(C)(C)c1ccc(C(=O)Nc2cccc(-c3nc(N)nc(Nc4ccc(N5CCOCC5)nc4)n3)c2CO)cc1 [Example 174, N-(3-{4-Amino-6-[(6-morpholinopyridin-3-yl)amino]-1,3,5-triazin-2-yl}-2-(hydroxymeth-yl)phenyl)-4-(tert-butyl)benzamide]",1.5
18,"Nc1nc(Nc2ccc(N3CCOCC3)cc2)nc(-c2cccc(NC(=O)c3cc4c(s3)CCC4)c2CO)n1 [Example 175, N-(3-{4-Amino-6-[(4-morpholinophenyl)amino]-1,3,5-triazin-2-yl}-2-(hydroxymethyl)phe-nyl)-5,6-dihydro-4H-cyclopenta[b]thiophene-2-carboxamide]",3.6
19,"Nc1nc(Nc2ccc(O)cc2)nc(-c2cccc(N3CCc4cc(C5CC5)cc(F)c4C3=O)c2CO)n1 [Example 182, 2-(3-{4-Amino-6-[(4-hy-droxyphenyl)amino]-1,3,5-triazin-2-yl}-2-(hydroxymethyl)phenyl)-6-cyclopropyl-8-fluoro-3,4-dihydro-isoquinolin-1(2H)-one]",3.6

# Continued by falling IC50, values first:
row,IC50 [nM],SMILES
1,2.3,"CN(C)CCCOc1ccc(Nc2nc(N)nc(-c3cccc(N4CCc5cc(C6CC6)cc(F)c5C4=O)c3CO)n2)cc1 [Example 183, 2-{3-[4-Amino-6-({4-[3-(dimethylamino)pro-poxy]phenyl}amino)-1,3,5-triazin-2-yl]-2-(hydroxymethyl)phenyl}-6-cyclopropyl-8-fluoro-3,4-dihydro-isoquinolin-1(2H)-one]"
2,1.6,"CC(C)(C)c1ccc(C(=O)Nc2cccc(-c3nc(N)nc(Nc4ccc(N5CCNC5=O)cc4)n3)c2CO)cc1 [Example 167, N-[3-(4-Amino-6-{[4-(2-oxoimidazolidin-1-yl)phenyl]amino}-1,3,5-triazin-2-yl)-2-(hy-droxymethyl)phenyl]-4-(tert-butyl)benzamide]"
3,1.2,"CC(C)(C)c1ccc(C(=O)Nc2cccc(-c3nc(N)nc(Nc4ccc(OCCN5CCCC5)cc4)n3)c2CO)cc1 [Example 152, N-{3-[4-Amino-6-({4-[2-(pyrrolidin-1-yl)eth-oxy]phenyl}amino)-1,3,5-triazin-2-yl]-2-(hy-droxymethyl)phenyl}-4-(tert-butyl)benzamide]"
4,1,"CN(C)CCOc1ccc(Nc2nc(N)nc(-c3cccc(NC(=O)c4ccc(C(C)(C)C)cc4)c3CO)n2)cc1 [Example 166, N-{3-[4-Amino-6-({4-[2-(dimethylamino)eth-oxy]phenyl}amino)-1,3,5-triazin-2-yl]-2-(hy-droxymethyl)phenyl}-4-(tert-butyl)benzamide]"
5,0.9,"Nc1nc(Nc2cnn(CCO)c2)nc(-c2cccc(N3CCc4cc(C5CC5)cc(F)c4C3=O)c2CO)n1 [Example 179, 2-[3-(4-Amino-6-{[1-(2-hydroxyethyl)-1H-py-razol-4-yl]amino}-1,3,5-triazin-2-yl)-2-(hy-droxymethyl)phenyl]-6-cyclopropyl-8-fluoro-3,4-dihydroisoquino-lin-1(1H)-one]"
6,0.8,"CC(C)(C)c1ccc(C(=O)Nc2cccc(-c3nc(N)nc(Nc4ccc(CC#N)cc4)n3)c2CO)cc1 [Example 148, N-[3-(4-Amino-6-{[4-(cyano-methyl)phenyl]ami-no}-1,3,5-triazin-2-yl)-2-(hydroxymethyl)phenyl]-4-(tert-butyl) benzamide]"
7,0.8,"CC(C)(C)c1ccc(C(=O)Nc2cccc(-c3nc(N)nc(Nc4ccc(Cn5cccn5)cc4)n3)c2CO)cc1 [Example 160, N-{3-[4-({4-[(1H-Pyra-zol-1-yl)methyl]phenyl}amino)-6-amino-1,3,5-triazin-2-yl]-2-(hy-droxymethyl)phenyl}-4-(tert-butyl)benzamide]"
8,0.7,"CC(C)(C)c1ccc(C(=O)Nc2cccc(-c3nc(N)nc(Nc4cn[nH]c4)n3)c2CO)cc1 [Example 165, N-(3-{4-[(1H-Pyrazol-4-yl)amino]-6-amino-1,3,5-triazin-2-yl}-2-(hydroxymethyl)phenyl)-4-(tert-butyl)benzamide]"
9,0.6,"CC(C)(C)c1ccc(C(=O)Nc2cccc(-c3nc(N)nc(Nc4ccc(Cn5ccccc5=O)cc4)n3)c2CO)cc1 [Example 173, N-{3-[4-Amino-6-({4-[(2-oxopyridin-1(2H)-yl)methyl]phenyl}amino)-1,3,5-triazin-2-yl]-2-(hydroxymethyl)phe-nyl}-4-(tert-butyl) benzamide]"
10,0.5,"CC(C)(C)c1ccc(C(=O)Nc2cccc(-c3nc(N)nc(Nc4cccc(Cn5cncn5)c4)n3)c2CO)cc1 [Example 162, N-{3-[4-({3-[(1H-1,2,4-Triazol-1-yl)methyl]phenyl}amino)-6-amino-1,3,5-triazin-2-yl]-2-(hydroxymethyl)phe-nyl}-4-(tert-butyl) benzamide]"
